Consider 17 compounds from US10512665B2, “Methods and compositions related to inhibition of viral entry” (University of Utah Research Foundation, priority 2007, dated 2019).

One test deals with HXB2 strain. Briefly: Single-cycle viral infectivity (viral entry) assay, HXB2 strain.
Another test concerns JRFL. Briefly: Viral infectivity (pseudovirion entry) assay, primary strain JRFL. It counts as cell-based, HIV-1. As to the method: While HXB2 is a commonly used lab-adapted HIV-1 isolate, it is often more vulnerable to inhibition than primary clinical HIV-1 isolates. […] Bianchi 2005).
All studies were done using the HXB2 strain unless otherwise specified. Viral infectivity was measured essentially as previously described (Hamburger 2005) with several modifications. 8 μg/mL DEAE-Dextran was used as a fusion enhancer in all assays. Media was changed 22-26 h following infection. […] Fits were weighted by the absolute s.e.m. from quadruplicate points with the minimum allowable error set to 1%.

Setting [1] is: read-out: IC50 (μM) (HXB2), HXB2 viral entry, Table 3.
The mark [2] stands for this setting: JRFL pseudovirion entry, Table 4, read-out: IC50 (nM) (JRFL).
The mark [3] stands for this setting: read-out: IC50 (nM) (HXB2), HXB2 pseudovirion entry, Table 4.
The mark [4] stands for this setting: read-out: IC50, inhibition of viral entry, HXB2.
Where [5] appears, read: JRFL, read-out: IC50 against primary isolate JRFL.

Where two headings read alike, the source gives them in different places.

Description for HXB2 strain: All studies were done using the HXB2 strain unless otherwise specified. […] 8 μg/mL DEAE-Dextran was used as a fusion enhancer in all assays. Media was changed 22-26 h following infection. […] Fits were weighted by the absolute s.e.m. from quadruplicate points with the minimum allowable error set to 1%.

As for KKGACDYPEWRWLCAA [2K-PIE2], the “less potent than PIE2” value with HXB2 strain (HXB2, compared with PIE2) is listed as around 2 fold. For the same compound, the half-inhibitory concentration (IC50) in the test with HXB2 strain (setting [1]) was 2.57 µM.

“KKGACELLGWEWAWLCAA [D10-p5, reference compound]”: the “inhibition of infection of cells” value with HXB2 strain (infectivity assay) was “inhibit infection of cells”. The IC50 in the test with HXB2 strain (setting [1]) came out at 9.51 µM.

Turning to KKGACESPEWRWLCAA [2K-PIE1], in the test on HXB2 strain (setting [1]), the IC50 was found to be 2.22 µM.

On to GACDYPEWQWLCAAGK [PIE7-GK], for which the values for the IC50 with JRFL (setting [2]) and in the test with HXB2 strain (setting [3]) were 15800 nM and 0.389 µM, respectively. For the same compound, the “inhibitory potency compared in words” value in the test with HXB2 strain is recorded as “slightly enhanced potency”.

KGACDYPEWRWLCAAA [PIE2-AAA]: the “inhibitory potency compared in words” value with HXB2 strain is “nearly indistinguishable from the potency of PIE2”. Besides, the IC50 with HXB2 strain (setting [1]) is 1.44 µM.

As for HPCDYPEWQWLCELGK [PIE12], the IC50 in the test on JRFL (setting [2]) was determined as 578 nM.

In the case of KGACDYPEWRWLCAA [PIE2], the IC50 in the test on HXB2 strain (setting [4]) is 1.32 µM.

For the compound PEG-(KGACDYPEWQWLCAA)2 [PEG-(PIE7)2], the IC50 in the test with JRFL (setting [5]) is 2300 nM; in the test on HXB2 strain (setting [3]) it was 0.0019 µM; in the test on HXB2 strain (setting [1]), 0.0019 µM; with HXB2 strain (read-out: IC50 of dimeric inhibitors, HXB2), 0.0019 µM. Besides, the “inhibitory potency compared in words” value in the test on HXB2 strain is given as “comparable to Fuzeon”. Further, in the test with HXB2 strain (HXB2, dimer vs monomer), the “improvement in IC50 over the corresponding monomer” value is around 325 fold.

The compound `Cc1ccc(-c2ccc3c(c2)C=C(C(=O)Nc2ccc(C[N+](C)(C)C4CCOCC4)cc2)CCC3)cc1` [TAK779, reference compound] showed an IC90 with JRFL (CCR5 co-receptor inhibitor, JRFL entry assay) of 100 nM.

HPCDYPEWQWLCKLGK [PIE13]: the 50% inhibitory concentration (IC50) is 1470 nM with JRFL (setting [2]) and 0.0413 µM in the test on HXB2 strain (setting [3]).

As to KGACDYPEWQWLCAA [PIE7], the “reduction in potency against JRFL” value in the test on JRFL (JRFL compared with HXB2) was around 40 fold. The IC50 in the test on JRFL (setting [2]) is 24000 nM; with JRFL (setting [5]) it was 24400 nM; in the test with HXB2 strain (setting [3]), 0.62 µM; in the test on HXB2 strain (setting [1]), 0.62 µM; in the test with HXB2 strain (setting [4]), 0.62 µM. Also, in the test with JRFL (JRFL, addition of 100 nM TAK779), the “improvement of potency on addition of TAK779” value is on record as “more than 3 fold”. Further, the “more potent than D10-p5” value with HXB2 strain (HXB2, compared with D10-p5) was around 15 fold. The “inhibitory activity in combination with Fuzeon” value in the test on HXB2 strain (against viral entry, with Fuzeon) is “at least additive”.

For GACDYPEWQWLCAAGKK [PIE7-GKK], the IC50 stood at 19100 nM in the test on JRFL (setting [2]) and 0.382 µM with HXB2 strain (setting [3]).

Turning to “enfuvirtide [Fuzeon, reference compound]”, the IC50 is 5 nM in the test with JRFL (setting [2]), 0.0037 µM in the test on HXB2 strain (setting [3]) and 0.0037 µM in the test on HXB2 strain (setting [1]).

Take HACDYPEWQWLCELGK [PIE15]: the IC50 in the test with JRFL (setting [2]) was 1450 nM; in the test on HXB2 strain (setting [3]), 0.0667 µM.

On to HPCDYPEWQWLCRLGK [PIE14], for which the results for the 50% inhibitory concentration (IC50) with JRFL (setting [2]) and in the test with HXB2 strain (setting [3]) were 1050 nM and 0.0331 µM, respectively.

In the case of KGACDYKEWQWLCAA [PIE8], in the test on HXB2 strain (setting [4]), the half-maximal inhibitory concentration (IC50) worked out at 1.68 µM.

In the case of KGACDYPEWQWLCAAGK [K-PIE7-GK], the IC50 in the test on JRFL (setting [2]) stood at 14800 nM.

One may read the IC50 as the concentration that inhibits the measured activity by half. For orientation: IC90 means the concentration at which the effect reaches the 90% level. The low end stands for an effect from little substance, the high end for a need for much substance.
